Assay: Phase I safety and tolerability (DLTs, adverse events, laboratory, ECG)
Format: in vivo
Protocol: This study employed a standard 3 + 3 dose escalation design with a starting dose of 25 mg QD. […] Dose escalation decisions took into account all available data from evaluable subjects as well as PK and the safety profile of prior dose cohorts. […] There was a minimum 5-day stagger between dosing of the first and second subjects in each dose cohort. Dose escalation decisions were made by a data review committee (DRC) composed of, at minimum, the medical monitor, at least one principal investigator, and a sponsor representative, per the study DRC Plan. Dose escalation could continue until 2 or more subjects in the same dose cohort experienced a dose-limiting toxicity (DLT). DLTs were defined as Grade 3 or 4 adverse drug reactions (ADRs), with grades as defined in the National Cancer Institute Common Toxicity Criteria for Adverse Events (NCI-CTCAE) version 5.0. […] The MTD was defined as the highest dose at which no more than 1 of 6 subjects experienced a DLT during cycle 1 of the study drug. The MTD would have been exceeded if 2 or more subjects in a dose cohort of up to 6 subjects experienced a DLT. Subjects could continue treatment until disease progression, unacceptable toxicity, death, withdrawal of consent, or loss to follow-up.
Before enrolment in the study, all patients received a detailed medical history and physical examination. Clinical laboratory evaluations included clinical chemistry, complete blood count, urinalysis, coagulation factors, and a lipid panel. Other safety assessments included vital signs, physical examination, electrocardiogram, and echocardiogram with multigated acquisition (ECHO/MUGA). Safety assessments were performed on days 1, 8, 15, and 21 of cycle 1, and on day 1 of cycles 2 to 6.

[1] = Grade 3, Overall Study (N = 35)
[2] = Grade All, Overall BID (N = 15)
[3] = Grade All, Overall Study (N = 35)

SMILES: Nc1ncc(-c2cnn(C3CCNCC3)c2)cc1-c1nnc(CC2CC2)o1 [SLC-391, 3-(5-[cyclopropylmethyl]-1,3,4-oxadiazol-2-yl)-5-(1-[piperidin-4-yl]-1H-pyrazol-4-yl)-pyridin-2-amine]
- TEAE: Metabolism and nutrition disorders (Grade 3, Overall BID (N = 15)): 0 n (%)
- TEAE: Musculoskeletal and connective tissue disorders (Grade 3, Overall BID (N = 15)): 1 (6.7) n (%)
- TEAE: Nausea (Grade 3, Overall BID (N = 15)): 0 n (%)
- TEAE: Renal and urinary disorders (Grade 3, Overall BID (N = 15)): 1 (6.7) n (%)
- TEAE: Respiratory, thoracic, and mediastinal disorders (Grade 3, Overall BID (N = 15)): 0 n (%)
- TEAE: Skin and subcutaneous tissue disorders (Grade 3, Overall BID (N = 15)): 1 (6.7) n (%)
- TEAE: Vascular disorders (Grade 3, Overall BID (N = 15)): 1 (6.7) n (%)
- TEAE: Vomiting (Grade 3, Overall BID (N = 15)): 0 n (%)
- Any treatment-emergent adverse event (TEAE) (Grade 3, Overall QD (N = 20)): 6 (30.0) n (%)
- TEAE: Blood and lymphatic system disorders (Grade 3, Overall QD (N = 20)): 1 (5.0) n (%)
- TEAE: Diarrhoea (Grade 3, Overall QD (N = 20)): 0 n (%)
- TEAE: Dyspnoea (Grade 3, Overall QD (N = 20)): 1 (5.0) n (%)
- TEAE: Fatigue (Grade 3, Overall QD (N = 20)): 0 n (%)
- TEAE: Gastrointestinal disorders (Grade 3, Overall QD (N = 20)): 3 (15.0) n (%)
- TEAE: General disorders and administration site conditions (Grade 3, Overall QD (N = 20)): 0 n (%)
- TEAE: Infections and infestations (Grade 3, Overall QD (N = 20)): 1 (5.0) n (%)
- TEAE: Metabolism and nutrition disorders (Grade 3, Overall QD (N = 20)): 2 (10.0) n (%)
- TEAE: Musculoskeletal and connective tissue disorders (Grade 3, Overall QD (N = 20)): 1 (5.0) n (%)
- TEAE: Nausea (Grade 3, Overall QD (N = 20)): 1 (5.0) n (%)
- TEAE: Renal and urinary disorders (Grade 3, Overall QD (N = 20)): 0 n (%)
- TEAE: Respiratory, thoracic, and mediastinal disorders (Grade 3, Overall QD (N = 20)): 2 (10.0) n (%)
- TEAE: Skin and subcutaneous tissue disorders (Grade 3, Overall QD (N = 20)): 0 n (%)
- TEAE: Vascular disorders (Grade 3, Overall QD (N = 20)): 1 (5.0) n (%)
- TEAE: Vomiting (Grade 3, Overall QD (N = 20)): 1 (5.0) n (%)
- Any treatment-emergent adverse event (TEAE) [1]: 12 (34.3) n (%)
- TEAE: Blood and lymphatic system disorders [1]: 2 (5.7) n (%)
- TEAE: Diarrhoea [1]: 1 (2.9) n (%)
- TEAE: Dyspnoea [1]: 1 (2.9) n (%)
- TEAE: Fatigue [1]: 1 (2.9) n (%)
- TEAE: Gastrointestinal disorders [1]: 4 (11.4) n (%)
- TEAE: General disorders and administration site conditions [1]: 1 (2.9) n (%)
- TEAE: Infections and infestations [1]: 2 (5.7) n (%)
- TEAE: Metabolism and nutrition disorders [1]: 2 (5.7) n (%)
- TEAE: Musculoskeletal and connective tissue disorders [1]: 2 (5.7) n (%)
- TEAE: Nausea [1]: 1 (2.9) n (%)
- TEAE: Renal and urinary disorders [1]: 1 (2.9) n (%)
- TEAE: Respiratory, thoracic, and mediastinal disorders [1]: 2 (5.7) n (%)
- TEAE: Skin and subcutaneous tissue disorders [1]: 1 (2.9) n (%)
- TEAE: Vascular disorders [1]: 2 (5.7) n (%)
- TEAE: Vomiting [1]: 1 (2.9) n (%)
- Any treatment-emergent adverse event (TEAE) [2]: 15 (100.0) n (%)
- TEAE: Abdominal distension [2]: 3 (20.0) n (%)
- TEAE: Abdominal pain [2]: 0 n (%)
- TEAE: Back pain [2]: 2 (13.3) n (%)
- TEAE: Blood and lymphatic system disorders [2]: 2 (13.3) n (%)
- TEAE: Chills [2]: 4 (26.7) n (%)
- TEAE: Constipation [2]: 7 (46.7) n (%)
- TEAE: Cough [2]: 3 (20.0) n (%)
- TEAE: Decreased appetite [2]: 5 (33.3) n (%)
- TEAE: Diarrhoea [2]: 9 (60.0) n (%)
- TEAE: Dizziness [2]: 0 n (%)
- TEAE: Dysgeusia [2]: 2 (13.3) n (%)
- TEAE: Dyspnoea [2]: 5 (33.3) n (%)
- TEAE: Fatigue [2]: 10 (66.7) n (%)
- TEAE: Gastrointestinal disorders [2]: 13 (86.7) n (%)
- TEAE: General disorders and administration site conditions [2]: 12 (80.0) n (%)
- TEAE: Haematuria [2]: 4 (26.7) n (%)
- TEAE: Headache [2]: 3 (20.0) n (%)
- TEAE: Infections and infestations [2]: 7 (46.7) n (%)
- TEAE: Investigations [2]: 3 (20.0) n (%)
- TEAE: Metabolism and nutrition disorders [2]: 5 (33.3) n (%)
- TEAE: Musculoskeletal and connective tissue disorders [2]: 6 (40.0) n (%)
- TEAE: Nausea [2]: 11 (73.3) n (%)
- TEAE: Nervous system disorders [2]: 5 (33.3) n (%)
- TEAE: Oedema peripheral [2]: 2 (13.3) n (%)
- TEAE: Psychiatric disorders [2]: 3 (20.0) n (%)
- TEAE: Pyrexia [2]: 2 (13.3) n (%)
- TEAE: Renal and urinary disorders [2]: 5 (33.3) n (%)
- TEAE: Respiratory, thoracic, and mediastinal disorders [2]: 8 (53.3) n (%)
- TEAE: Skin and subcutaneous tissue disorders [2]: 3 (20.0) n (%)
- TEAE: Urinary tract infection [2]: 3 (20.0) n (%)
- TEAE: Vascular disorders [2]: 2 (13.3) n (%)
- TEAE: Vomiting [2]: 6 (40.0) n (%)
- TEAE: Weight decreased [2]: 2 (13.3) n (%)
- Any treatment-emergent adverse event (TEAE) (Grade All, Overall QD (N = 20)): 19 (95.0) n (%)
- TEAE: Abdominal distension (Grade All, Overall QD (N = 20)): 3 (15.0) n (%)
- TEAE: Abdominal pain (Grade All, Overall QD (N = 20)): 5 (25.0) n (%)
- TEAE: Back pain (Grade All, Overall QD (N = 20)): 2 (10.0) n (%)
- TEAE: Blood and lymphatic system disorders (Grade All, Overall QD (N = 20)): 2 (10.0) n (%)
- TEAE: Chills (Grade All, Overall QD (N = 20)): 2 (10.0) n (%)
- TEAE: Constipation (Grade All, Overall QD (N = 20)): 7 (35.0) n (%)
- TEAE: Cough (Grade All, Overall QD (N = 20)): 4 (20.0) n (%)
- TEAE: Decreased appetite (Grade All, Overall QD (N = 20)): 7 (35.0) n (%)
- TEAE: Diarrhoea (Grade All, Overall QD (N = 20)): 11 (55.0) n (%)
- TEAE: Dizziness (Grade All, Overall QD (N = 20)): 4 (20.0) n (%)
- TEAE: Dysgeusia (Grade All, Overall QD (N = 20)): 2 (10.0) n (%)
- TEAE: Dyspnoea (Grade All, Overall QD (N = 20)): 7 (35.0) n (%)
- TEAE: Fatigue (Grade All, Overall QD (N = 20)): 12 (60.0) n (%)
- TEAE: Gastrointestinal disorders (Grade All, Overall QD (N = 20)): 17 (85.0) n (%)
- TEAE: General disorders and administration site conditions (Grade All, Overall QD (N = 20)): 15 (75.0) n (%)
- TEAE: Haematuria (Grade All, Overall QD (N = 20)): 1 (5.0) n (%)
- TEAE: Headache (Grade All, Overall QD (N = 20)): 2 (10.0) n (%)
- TEAE: Infections and infestations (Grade All, Overall QD (N = 20)): 4 (20.0) n (%)
- TEAE: Investigations (Grade All, Overall QD (N = 20)): 5 (25.0) n (%)
- TEAE: Metabolism and nutrition disorders (Grade All, Overall QD (N = 20)): 9 (45.0) n (%)
- TEAE: Musculoskeletal and connective tissue disorders (Grade All, Overall QD (N = 20)): 8 (40.0) n (%)
- TEAE: Nausea (Grade All, Overall QD (N = 20)): 13 (65.0) n (%)
- TEAE: Nervous system disorders (Grade All, Overall QD (N = 20)): 10 (50.0) n (%)
- TEAE: Oedema peripheral (Grade All, Overall QD (N = 20)): 2 (10.0) n (%)
- TEAE: Psychiatric disorders (Grade All, Overall QD (N = 20)): 2 (10.0) n (%)
- TEAE: Pyrexia (Grade All, Overall QD (N = 20)): 3 (15.0) n (%)
- TEAE: Renal and urinary disorders (Grade All, Overall QD (N = 20)): 1 (5.0) n (%)
- TEAE: Respiratory, thoracic, and mediastinal disorders (Grade All, Overall QD (N = 20)): 11 (55.0) n (%)
- TEAE: Skin and subcutaneous tissue disorders (Grade All, Overall QD (N = 20)): 7 (35.0) n (%)
- TEAE: Urinary tract infection (Grade All, Overall QD (N = 20)): 1 (5.0) n (%)
- TEAE: Vascular disorders (Grade All, Overall QD (N = 20)): 3 (15.0) n (%)
- TEAE: Vomiting (Grade All, Overall QD (N = 20)): 11 (55.0) n (%)
- TEAE: Weight decreased (Grade All, Overall QD (N = 20)): 4 (20.0) n (%)
- Any treatment-emergent adverse event (TEAE) [3]: 34 (97.1) n (%)
- TEAE: Abdominal distension [3]: 6 (17.1) n (%)
- TEAE: Abdominal pain [3]: 5 (14.3) n (%)
- TEAE: Back pain [3]: 4 (11.4) n (%)
- TEAE: Blood and lymphatic system disorders [3]: 4 (11.4) n (%)
- TEAE: Chills [3]: 6 (17.1) n (%)
- TEAE: Constipation [3]: 14 (40.0) n (%)
- TEAE: Cough [3]: 7 (20.0) n (%)
- TEAE: Decreased appetite [3]: 12 (34.3) n (%)
- TEAE: Diarrhoea [3]: 20 (57.1) n (%)
- TEAE: Dizziness [3]: 4 (11.4) n (%)
- TEAE: Dysgeusia [3]: 4 (11.4) n (%)
- TEAE: Dyspnoea [3]: 12 (34.3) n (%)
- TEAE: Fatigue [3]: 22 (62.9) n (%)
- TEAE: Gastrointestinal disorders [3]: 30 (85.7) n (%)
- TEAE: General disorders and administration site conditions [3]: 27 (77.1) n (%)
- TEAE: Haematuria [3]: 5 (14.3) n (%)
- TEAE: Headache [3]: 5 (14.3) n (%)
- TEAE: Infections and infestations [3]: 11 (31.4) n (%)
- TEAE: Investigations [3]: 8 (22.9) n (%)
- TEAE: Metabolism and nutrition disorders [3]: 14 (40.0) n (%)
